In patent US10981932B2, “Macrocyclic indole derivatives” (Bayer Aktiengesellschaft, priority 2016, dated 2021):
Where a name gives a salt, the structure may show the parent alone. Read-outs that look alike come from different tables or passages of the source.

What was measured:
SUDHL5 [1] = test: Induction of cytotoxicity (CellTiter-Glo, 5 h), SUDHL5
SUDHL5 [2] = test: Anti-proliferative effect (CellTiter-Glo, 72 h), SUDHL5; assay type: cell-based; details: SUDHL5 cells, antiproliferation, median, read-out: Antiproli SUDHL5 [M] (median)
How it was run: (§1)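 CellTiter-Glo luminescence readout of viability, taken on a time-zero plate at day 0 and on treated plates after 72 h incubation at 37 °C in a humidified incubator. Reagent incubation 10 min before reading.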

SUDHL10 [3] = test: Induction of cytotoxicity (CellTiter-Glo, 5 h), SUDHL10
SUDHL10 [4] = test: Induction of caspase-3/7 activity (Caspase-Glo 3/7), SUDHL10; assay type: cell-based; details: caspase-3/7 induction, SUDHL10 cells, 3 h treatment, median
How it was run: (§2)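 Caspase-Glo 3/7 luminescence measured after 3 h compound exposure at 37 °C in SUDHL10 and SUDHL5 cells. EC50 values come from background-corrected signals, with curve bottom set to 1 and plateau set to maximal induction by the reference compound.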

A2780 = test: Anti-proliferative effect (CellTiter-Glo, 72 h), A2780; assay type: cell-based; details: A2780 cells, median, read-out: IC50 antiproliferation assay A2780 [M] (median)
How it was run: as §1

MCL-1 = MCL-1 (Homo sapiens, UniProt Q07820); test: Protein-protein interaction assay MCL-1/Noxa BH3 peptide (MCL-1 assay), TR-FRET; assay type: binding; details: MBP-MCL-1 / Noxa BH3-derived peptide, median
Chain of MCL-1 (Q07820 whole entry): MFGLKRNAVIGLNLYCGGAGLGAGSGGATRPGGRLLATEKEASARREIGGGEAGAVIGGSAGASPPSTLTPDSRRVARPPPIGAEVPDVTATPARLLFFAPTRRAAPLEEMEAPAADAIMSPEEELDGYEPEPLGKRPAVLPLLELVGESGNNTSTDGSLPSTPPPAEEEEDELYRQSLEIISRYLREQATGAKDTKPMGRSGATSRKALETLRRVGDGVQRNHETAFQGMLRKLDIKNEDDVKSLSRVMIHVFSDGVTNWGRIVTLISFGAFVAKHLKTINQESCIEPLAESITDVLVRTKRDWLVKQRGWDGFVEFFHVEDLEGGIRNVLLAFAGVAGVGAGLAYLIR
How it was run: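 MBP-MCL-1 (1 nM final) was preincubated 10 min at 22 °C with compounds (11 concentrations, 0.1 nM–20 μM, duplicates) in Tris pH 7 buffer with NaCl, KF, Tween-20, DTT and BGG. After 1 h at 22 °C in the dark plus overnight at 4 °C, anti-MBP Eu-cryptate/streptavidin-XL665 TR-FRET was read; IC50 came from a 4-parameter fit.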

SUDHL10 [5] = test: Anti-proliferative effect (CellTiter-Glo, 72 h), SUDHL10; assay type: cell-based; details: SUDHL10 cells, antiproliferation, median, read-out: Antiproli SUDHL10 [M] (median)
How it was run: as §1

SUDHL5 [6] = test: Induction of caspase-3/7 activity (Caspase-Glo 3/7), SUDHL5; assay type: cell-based; details: caspase-3/7 induction, SUDHL5 cells, 3 h treatment, median
How it was run: as §2

[7] = read-out: Cytotox SUDHL5 [M] (median), SUDHL5 cells, cytotoxicity induction, CellTiter-Glo, 5 h incubation, median
[8] = read-out: Cytotox SUDHL10 [M] (median), SUDHL10 cells, cytotoxicity induction, CellTiter-Glo, 5 h incubation, median
[9] = read-out: Cytotox SUDHL5 [M] (median), SUDHL5 cells, cytotoxicity induction, CellTiter-Glo, 5 h, median
[10] = read-out: Cytotox SUDHL10 [M] (median), SUDHL10 cells, cytotoxicity induction, CellTiter-Glo, 5 h, median
[11] = Homo sapiens, SU-DHL10, 72 h, 72 h incubation
[12] = Homo sapiens, SU-DHL-5, 5 h, read-out: Cytotox SUDHL5 [M] (median), SUDHL5 cells, cytotoxicity induction, CellTiter-Glo, 5 h incubation, median
[13] = Homo sapiens, SU-DHL-5, 72 h, 72 h incubation
[14] = Homo sapiens, SU-DHL10, 5 h, read-out: Cytotox SUDHL10 [M] (median), SUDHL10 cells, cytotoxicity induction, CellTiter-Glo, 5 h incubation, median

SMILES	IC50 (SUDHL5 [2]; 72 h incubation)	EC50 (SUDHL10 [4])	IC50 (A2780; Homo sapiens, A2780, 72 h)	IC50 (MCL-1)	IC50 (SUDHL10 [5]; 72 h incubation)	EC50 (SUDHL5 [6])	IC50 (SUDHL5 [2]; 72 h)	IC50 (A2780)	IC50 (SUDHL10 [5]; 72 h)	IC50 (SUDHL10 [5]; [11])	IC50 (SUDHL5 [2]; [13])	EC50 (SUDHL10 [4]; Homo sapiens, SU-DHL10, 3 h)	EC50 (SUDHL5 [6]; Homo sapiens, SU-DHL-5, 3 h)	IC50 (SUDHL5 [1]; [7])	IC50 (SUDHL10 [3]; [8])	IC50 (SUDHL5 [1]; [9])	IC50 (SUDHL10 [3]; [10])	IC50 (SUDHL5 [1]; [12])	IC50 (SUDHL10 [3]; [14])
CCCc1nn(C)c2c1-c1c(C)ccc3c(CCCOc4cccc5ccccc45)c(C(=O)O)n(c13)CCCCOC2 (single isomer, unassigned; enantiomer 1) [Example 188, 1,4-dimethyl-7-[3-(naphthalen-1-yloxy)propyl]-3-propyl-1,10,11,12,13,15-hexahydropyrazolo[4′,3′:9,10][1,6]oxazacycloundecino[8,7,6-hi]indole-8-carboxylic acid-N-ethylethanamine Salt (Enantiomer 1)]	3.39e-06 M	7.76 µM	2.42e-05 M	0.00146 µM	9.83e-06 M	2.82 µM								2.95e-06 M	6.61e-06 M				
Cn1nc2c(c1C(F)(F)F)-c1cccc3c(CCCOc4cccc5ccccc45)c(C(=O)O)n(c13)CCCCOC2 (single isomer, unassigned; enantiomer 2) [Example 195, 2-methyl-7-[3-(naphthalen-1-yloxy)propyl]-3-(trifluoromethyl)-2,10,11,12,13,15-hexahydropyrazolo[4′,3′:9,10][1,6]oxazacycloundecino[8,7,6-hi]indole-8-carboxylic Acid (Enantiomer 2)]	5.84e-06 M	> 33 µM		0.0532 µM	1.32e-05 M	> 33 µM		1.27e-05 M						> 3.3e-05 M	> 3.3e-05 M				
COCCn1nc(C2CC2)c2c1COCCCCn1c(C(=O)O)c(CCCOc3cccc4ccccc34)c3cccc-2c31 (single isomer, unassigned; enantiomer 1) [Example 103, 3-cyclopropyl-1-(2-methoxyethyl)-7-[3-(naphthalen-1-yloxy)propyl]-1,10,11,12,13,15-hexahydropyrazolo[4′,3′:9,10][1,6]oxazacycloundecino[8,7,6-hi]indole-8-carboxylic acid-N-ethylethanamine Salt (Enantiomer 1)]	4.28e-06 M	8.71 µM	> 3.3e-05 M	0.00298 µM		2.66 µM		2.72e-05 M		7.52e-06 M				3.55e-06 M	8.83e-06 M				
Cc1c2c(nn1C)CN(C)CCCCn1c(C(=O)O)c(CCCOc3cccc4ccccc34)c3cccc-2c31 (single isomer, unassigned; enantiomer 2) [Example 069, 2,3,14-trimethyl-7-[3-(naphthalen-1-yloxy)propyl]-10,11,12,13,14,15-hexahydro-2H-pyrazolo[3′,4′:8,9][1,6]diazacycloundecino[10,11,1-hi]indole-8-carboxylic Acid (Enantiomer 2)]	> 3.3e-05 M	> 33 µM		0.162 µM	2.11e-05 M	> 33 µM		> 3.3e-05 M						> 3.3e-05 M	> 3.3e-05 M				
Cn1nc(CN2CC(F)(F)C2)c2c1COCCCCn1c(C(=O)O)c(CCCOc3cccc4ccccc34)c3cccc-2c31 (racemic) [Example 180, (rac)-3-[(3,3-difluoroazetidin-1-yl)methyl]-1-methyl-7-[3-(naphthalen-1-yloxy)propyl]-1,10,11,12,13,15-hexahydropyrazolo[4′,3′:9,10][1,6]oxazacycloundecino[8,7,6-hi]indole-8-carboxylic Acid]			2.36e-05 M	0.0177 µM						8.97e-06 M	7.77e-06 M	28.2 µM	14.5 µM					1.1e-05 M	3.11e-05 M
COCCn1nc(C2CC2)c2c1COCCCCn1c(C(=O)O)c(CCCOc3cccc4c3CCCC4)c3cccc-2c31 (racemic) [Example 164, (rac)-3-Cyclopropyl-1-(2-methoxyethyl)-7-[3-(5,6,7,8-tetrahydronaphthalen-1-yloxy)propyl]-1,10,11,12,13,15-hexahydropyrazolo[4′,3′:9,10][1,6]oxazacycloundecino[8,7,6-hi]indole-8-carboxylic Acid]			2.03e-05 M	0.0107 µM						1.69e-05 M	1.6e-05 M	> 33 µM	12 µM					9.23e-06 M	3.07e-05 M

Second part, led by results:

IC50 (SUDHL5 [2]; 72 h incubation)	EC50 (SUDHL10 [4])	IC50 (A2780; Homo sapiens, A2780, 72 h)	IC50 (MCL-1)	IC50 (SUDHL10 [5]; 72 h incubation)	EC50 (SUDHL5 [6])	IC50 (SUDHL5 [2]; 72 h)	IC50 (A2780)	IC50 (SUDHL10 [5]; 72 h)	IC50 (SUDHL10 [5]; [11])	IC50 (SUDHL5 [2]; [13])	EC50 (SUDHL10 [4]; Homo sapiens, SU-DHL10, 3 h)	EC50 (SUDHL5 [6]; Homo sapiens, SU-DHL-5, 3 h)	SMILES	IC50 (SUDHL5 [1]; [7])	IC50 (SUDHL10 [3]; [8])	IC50 (SUDHL5 [1]; [9])	IC50 (SUDHL10 [3]; [10])	IC50 (SUDHL5 [1]; [12])	IC50 (SUDHL10 [3]; [14])
	> 33 µM		0.103 µM		> 33 µM	2.48e-05 M	3.12e-05 M	1.3e-05 M					Cn1nc(CN2CCCCC2=O)c2c1COCCCCn1c(C(=O)O)c(CCCOc3cccc4ccccc34)c3cccc-2c31 (single isomer, unassigned; enantiomer 2) [Example 327, 1-methyl-7-[3-(naphthalen-1-yloxy)propyl]-3-[(2-oxopiperidin-1-yl)methyl]-1,10,11,12,13,15-hexahydropyrazolo[4′,3′:9,10][1,6]oxazacycloundecino[8,7,6-hi]indole-8-carboxylic Acid (Enantiomer 2)]			> 3.3e-05 M	> 3.3e-05 M		
6.51e-06 M	12.9 µM	2.34e-05 M	0.00474 µM		3.17 µM		> 3.3e-05 M		8.78e-06 M				O=C(O)c1c(CCCOc2cccc3ccccc23)c2cccc3c2n1CCCCOCc1nn2c(c1-3)OCCC2 (single isomer, unassigned) [Example 248, 1-[3-(naphthalen-1-yloxy)propyl]-4,5,6,7,13,14-hexahydro-9H,12H-[1,3]oxazino[3″,2″:1′,5]pyrazolo[4′,3′:9,10][1,6]oxazacycloundecino[8,7,6-hi]indole-2-carboxylic Acid]	3.38e-06 M	1.29e-05 M				
	> 33 µM		0.639 µM		30.3 µM	1.22e-05 M	1e-05 M	4.61e-06 M					COc1ccc(OCc2nn(C)c3c2-c2cccc4c(CCCOc5cccc6ccccc56)c(C(=O)O)n(c24)CCCCOC3)cc1 (single isomer, unassigned; enantiomer 2) [Example 321, 3-[(4-methoxyphenoxy)methyl]-1-methyl-7-[3(naphthalen-1 yloxy)propyl]-1,10,11,12,13,15-hexahydropyrazolo[4′,3′:9,10][1,6]oxazacycloundecino[8,7,6-hi]indole-8-carboxylic acid-N-ethylethanamine Salt (Enantiomer 2)]			2.97e-05 M	2.56e-05 M		
		> 3.3e-05 M	0.0262 µM						1.14e-05 M	8.1e-06 M	16.1 µM	17.3 µM	Cn1ccnc1COCc1nn(C)c2c1-c1cccc3c(CCCOc4cccc5ccccc45)c(C(=O)O)n(c13)CCCCOC2 (racemic) [Example 231, (rac)-1-methyl-3-{[(1-methyl-1H-imidazol-2-yl)methoxyl]methyl}-7-[3-(naphthalen-1-yloxy)propyl]-1,10,11,12,13,15-hexahydropyrazolo[4′,3′:9,10][1,6]oxazacycloundecino[8,7,6-hi]indole-8-carboxylic Acid]					1.33e-05 M	1.6e-05 M
	> 33 µM		0.651 µM		> 33 µM	6.48e-06 M	> 3.3e-05 M	> 3.3e-05 M					CC(=O)NCc1nn(C)c2c1-c1cccc3c(CCCOc4cccc5ccccc45)c(C(=O)O)n(c13)CCCCOC2 (single isomer, unassigned; enantiomer 2) [Example 341, 3-[(acetylamino)methyl]-1-methyl-7-[3-(naphthalen-1-yloxy)propyl]-1,10,11,12,13,15-hexahydropyrazolo[4′3′:9,10][1,6]oxazacycloundecino[8,7,6-hi]indole-cararboxylic Acid (Enantiomer 2)]			2.64e-05 M	> 3.3e-05 M		
